Reference: patent US5446157A, “Boron difluoride compounds useful in photodynamic therapy and production of laser light” (priority 1993, dated 1995)
“And” between values parts separate entries of the source, which are not always exact repeats. Equal values may be shown once. Where a name gives a salt, the structure may show the parent alone.

Key:
[1] = Fluorescence (λf, quantum yield); assay type: physicochemical; conditions: for .PHI.f (fluorescence quantum yield): ethanol, excitation 450 and 460 nm, reference acridine orange; for .PHI.f: solvent not stated
Method: Instruments for spectroscopic measurements included: Perkin-Elmer 1600 FTIR, Varian Gernini 300 NMR, Hewlett-Packard 5985 (70 eV) GC-MS, Cary 17 (UV), and Perkin-Elmer LS-5B Luminescence spectrometer. A dye laser was constructed and operated in the non-flowing (static) mode and had no tuning capability. […] Laser energy outputs were measured with an accuracy of ±5% by a Scientech 365 power and energy meter.
(§1) Light absorption, luminescence, and laser activity properties for the dyes 7 are described in Table VI. Each recorded UV absorption was restricted to the highest wave length. Fluorescence quantum yields of the dyes were determined for ethanol solutions with excitation at 450 and 460 nm by reference to acridine orange, .PHI.0.46, in ethanol; for the dye 7p the reference was R-6G, <P 0.90. Melting points were obtained from a Mel-Temp II device and were uncorrected. The solvent for ^1 H NMR spectra was chloroform-d with tetramethylsilane as an internal standard. Elemental analyses were obtained from Midwest Micro Lab, Indianapolis, Ind. and Galbraith Laboratories, Inc., Knoxville, Tenn. Solvents were removed by rotary evaporation under reduced pressure unless indicated otherwise. Column chromatography was performed on silica gel. Molecular weights were confirmed by EI-MS for the pyrrole 4j 193 and for laser dyes 7d 346, 7e 374, 7g 374, 7i 342, 7j 314 and 7x 360. IR absorption data satisfactorily supported structure assignments for the laser dyes 7.
^[b] 2 × 10^-4 M in ethanol except where noted otherwise.

[2] = UV light absorption (λmax, log ε); assay type: physicochemical; conditions: for log ε: solvent as for λmax (ethanol except where noted); for absorption shift: in comparison with 8-substituted peralkylated structures (7b, g, k)
Method: as §1, with “Each” for “Light absorption, luminescence, and laser activity properties for the dyes 7 are described in Table VI. Each”, “0.90. […]” for “0.90.”, “gel.” for “gel. Molecular weights were confirmed by EI-MS for the pyrrole 4j 193 and for laser dyes 7d 346, 7e 374, 7g 374, 7i 342, 7j 314 and 7x 360. IR absorption data satisfactorily supported structure assignments for the laser dyes 7.”
5 × 10^-6 M in ethanol except where noted otherwise.

| Compound | λf ([1]; 2 × 10^-4 M in ethanol) [nm] | .PHI.f (fluorescence quantum yield) [1] | λmax ([2]; 5 × 10^-6 M in ethanol) [nm] | log ε [2] | further results |
| --- | --- | --- | --- | --- | --- |
| CC1=C(c2ccccc2)C(C)=[N+]2C1=C(C)c1c(C)c(-c3ccccc3)c(C)n1[B-]2(F)F [Compound 7l] | 559 | 0.43 | 519 | 4.90 | – |
| CCC1=C(C)C2=C(c3ccc(N(C)C)cc3)c3c(C)c(CC)c(C)n3[B-](F)(F)[N+]2=C1C [Compound 7s] | 575 | 0.04 | 519 | 4.95 | – |
| CC1=C2CCCCC2=[N+]2C1=C(C)c1c(C)c3c(n1[B-]2(F)F)CCCC3 [Compound 7i] | 552 | – | 522 | > 4.8 and 4.91 | – |
| CCC1=C(C)C2=Cc3c(C)c(CC)c(C)n3[B-](F)(F)[N+]2=C1C [Compound 11] | – | – | – | – | .PHI.f [1]: 0.81 |
| CCC1=C(C)C2=C(C#N)c3c(C)c(CC)c(C)n3[B-](F)(F)[N+]2=C1C [Compound 7bb, 1,3,5,7-Tetramethyl-2,6-diethyl-8-cyanopyrromethene-BF2 complex] | – | 0.55 | – | 4.72 | λf ([1]; 2 × 10^-4 M in p-dioxan): 620 nm; λmax ([2]; 2 × 10^-4 M in p-dioxan): 580 nm |
| CC1=C(C)C(C)=[N+]2C1=Cc1c(C)c(C)c(C)n1[B-]2(F)F [Compound 7z, 1,2,3,5,6,7-hexamethylpyrromethene-BF2 complex] | 552 | 0.56 | 528 | 4.84 | fluorescence [1]: erratic effect on fluorescence; absorption shift [2]: slight bathochromic shift in absorption |
| CCC1=C(C)C2=Cc3c(C)c(CC)c(C)n3[B-](CC)(CC)[N+]2=C1C [Compound 10, 1,3,5,7-tetramethyl-2,6-diethylpyrromethene-B(CH2 CH3)2 complex, reference compound] | – | – | – | – | .PHI.f [1]: 0.31 |
| CCC1=C(C)C2=C(C3CCCCC3)c3c(C)c(CC)c(C)n3[B-](F)(F)[N+]2=C1C [Compound 7q, 1,3,5,7-tetramethyl-2,6-diethyl-8-cyclohexylpyrromethene-BF2 complex] | 526 | 0.23 | 516 | 4.81 | – |
| CC1=C(C(C)C)C(C)=[N+]2C1=C(C)c1c(C)c(C(C)C)c(C)n1[B-]2(F)F [Compound 7f] | 548 | 0.67 | 516 | 4.85 | – |
| CCC1=C(CC)C(C)=[N+]2C1=Cc1c(CC)c(CC)c(C)n1[B-]2(F)F [Compound 7y, 1,2,6,7-tetraethyl-3,5-dimethylpyrromethene-BF2 complex] | 554 | 0.70 | 529 | 4.89 | fluorescence [1]: erratic effect on fluorescence; absorption shift [2]: slight bathochromic shift in absorption |
| CCC1=C(C)C2=C(CC)c3c(C)c(CC)c(C)n3[B-](F)(F)[N+]2=C1C [Compound 7o, 1,3,5,7-tetramethyl-2,6,8-triethylpyrromethene-BF2 complex] | 546 | 0.84 | 520 | 4.92 | – |
| CCC1=C(C)C(=Cc2[nH]c(C)c(CC)c2C)N=C1C [Compound 9, 3,5,3',5'-tetramethyl-4,4'-diethylpyrromethene hydrobromide, reference compound] | – | – | – | – | .PHI.f [1]: 4.3×10^-4 |
| CC1=C(C(C)(C)C)C(C)=[N+]2C1=C(C)c1c(C)c(C(C)(C)C)c(C)n1[B-]2(F)F [Compound 7g] | 567 | 0.77 | 525 | 4.83 | – |
| CCCCC1=C(C)C2=C(C)c3c(C)c(CCCC)c(C)n3[B-](F)(F)[N+]2=C1C [Compound 7e] | 550 | 0.90 | 518 | 4.92 | – |
| CC1=[N+]2C(=Cc3c(-c4ccccc4)cc(C)n3[B-]2(F)F)C(c2ccccc2)=C1 [Compound 7w, 1,7-diphenyl-3,5-dimethylpyrromethene-BF2 complex] | 551 | 0.61 | 521 | 4.92 | – |
| COc1ccc(C2=C3C(C)=CC(C)=[N+]3[B-](F)(F)n3c(C)cc(C)c32)cc1 [Compound 7t, 1,3,5,7-tetramethyl-8-p-methoxyphenylpyrromethene-BF2 complex] | 521 | 0.63 | 497 | 4.86 | – |
| CCOC(=O)C1=C(C)C2=C(C#N)c3c(C)c(C(=O)OCC)c(C)n3[B-](F)(F)[N+]2=C1C [Compound 7aa, diethyl 1,3,5,7-tetramethyl-8-cyanopyrromethene-2,6-dicarboxylate-BF2 complex] | – | 0.82 | – | 4.98 | λf ([1]; 2 × 10^-4 M in p-dioxan): 589 nm; λmax ([2]; 2 × 10^-4 M in p-dioxan): 556 nm |
| Cc1nc2n(c1C)[B-](F)(F)[n+]1c-2[nH]c(C)c1C [Compound 21-BF3] | – | – | – | – | .THETA.f ([1]; Lewis acid salt 21-BF3): 0.93; λf ([1]; Lewis acid salt 21-BF3): 377 nm |
| CC(=O)NC1=C(C)C2=C(C)c3c(C)c(NC(C)=O)c(C)n3[B-](F)(F)[N+]2=C1C [Compound 7m] | – | 0.17 | – | 4.63 | λf ([1]; 2 × 10^-4 M in trifluoroethanol): 542 nm; λmax ([2]; 5 × 10^-6 M in trifluoroethanol): 498 nm |
| COC1=C(C)C(C)=[N+]2C1=C(C)c1c(OC)c(C)c(C)n1[B-]2(F)F [Compound 7n, 1,7-dimethoxy-2,3,5,6,8-pentamethylpyrromethene-BF2 complex] | 522 | 0.84 | 485 | 4.85 | – |
| CC1=C2C=C3CCCCC3=[N+]2[B-](F)(F)n2c1cc1c2CCCC1 [Compound 7h, 2,3,6,7-bistetramethylene-8-methylpyrromethene-BF2 complex] | 560 | – | 535 | > 4.8 and 4.93 | – |
| CCC1=C(C)C2=C(COC(C)=O)c3c(C)c(CC)c(C)n3[B-](F)(F)[N+]2=C1C [Compound 7r] | 575 | 0.74 | 543 | 4.89 | – |
| CCCC1=C(C)C2=C(C)c3c(C)c(CCC)c(C)n3[B-](F)(F)[N+]2=C1C [Compound 7d, 2,6-Di-n-propyl-1,3,5,7,8-pentamethylpyrromethene-BF2 complex] | 549 | 0.99 | 517 | 4.89 | – |
| CCC1=C(c2ccccc2)C2=Cc3c(-c4ccccc4)c(CC)c(C)n3[B-](F)(F)[N+]2=C1C [Compound 7u] | 564 | 0.60 | 540 | 5.00 | – |
| CC1=C(C(C)(C)C)C(C)=[N+]2C1=Cc1c(C)c(C(C)(C)C)c(C)n1[B-]2(F)F [Compound 7x, 1,3,5,7-tetramethyl-2,6-di-tert-butylpyrromethene-BF2 complex] | 554 | 0.84 | 527 | 4.93 | fluorescence [1]: erratic effect on fluorescence; absorption shift [2]: slight bathochromic shift in absorption |
